Data from US20260062387A1, “SALT-INDUCIBLE KINASE INHIBITOR COMPOUND AND PHARMACEUTICAL COMPOSITION INCLUDING THE SAME” (MITSUBISHI TANABE PHARMA CORPORATION, priority 2023, published 2026).

How the values were obtained:
Format in all cases: biochemical
[1] = target: GST-tagged SIK2 (Homo sapiens (Human), UniProt Q9H0K1); assay: SIK2 inhibition test (ADP-Glo Max Assay); details: enzyme 3 nM, AMARA Peptide 200 μM, ATP 1 mM, 2 hours room temperature
Summary of the method: (§1)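 GST-tagged human SIK1, SIK2 and SIK3 at 20 nM, 3 nM and 100 nM final in Tris pH 7.5 buffer, with AMARA peptide (200 μM for SIK1/SIK2, 100 μM for SIK3), 1 mM ATP and 5 mM MgCl2. Reaction ran 2 h at room temperature. ADP read by ADP-Glo Max luminescence, and IC50 fitted from 16 concentrations.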

[2] = target: GST-tagged SIK1 (Homo sapiens (Human), UniProt P57059); assay: SIK1 inhibition test (ADP-Glo Max Assay); details: enzyme 20 nM, AMARA Peptide 200 μM, ATP 1 mM, 2 hours room temperature
Summary of the method: as §1

[3] = target: GST-tagged SIK3 (Homo sapiens (Human), UniProt Q9Y2K2); assay: SIK3 inhibition test (ADP-Glo Max Assay); details: enzyme 100 nM, AMARA Peptide 100 μM, ATP 1 mM, 2 hours room temperature
Summary of the method: as §1

GST-tagged SIK2, sequence (Q9H0K1 whole entry): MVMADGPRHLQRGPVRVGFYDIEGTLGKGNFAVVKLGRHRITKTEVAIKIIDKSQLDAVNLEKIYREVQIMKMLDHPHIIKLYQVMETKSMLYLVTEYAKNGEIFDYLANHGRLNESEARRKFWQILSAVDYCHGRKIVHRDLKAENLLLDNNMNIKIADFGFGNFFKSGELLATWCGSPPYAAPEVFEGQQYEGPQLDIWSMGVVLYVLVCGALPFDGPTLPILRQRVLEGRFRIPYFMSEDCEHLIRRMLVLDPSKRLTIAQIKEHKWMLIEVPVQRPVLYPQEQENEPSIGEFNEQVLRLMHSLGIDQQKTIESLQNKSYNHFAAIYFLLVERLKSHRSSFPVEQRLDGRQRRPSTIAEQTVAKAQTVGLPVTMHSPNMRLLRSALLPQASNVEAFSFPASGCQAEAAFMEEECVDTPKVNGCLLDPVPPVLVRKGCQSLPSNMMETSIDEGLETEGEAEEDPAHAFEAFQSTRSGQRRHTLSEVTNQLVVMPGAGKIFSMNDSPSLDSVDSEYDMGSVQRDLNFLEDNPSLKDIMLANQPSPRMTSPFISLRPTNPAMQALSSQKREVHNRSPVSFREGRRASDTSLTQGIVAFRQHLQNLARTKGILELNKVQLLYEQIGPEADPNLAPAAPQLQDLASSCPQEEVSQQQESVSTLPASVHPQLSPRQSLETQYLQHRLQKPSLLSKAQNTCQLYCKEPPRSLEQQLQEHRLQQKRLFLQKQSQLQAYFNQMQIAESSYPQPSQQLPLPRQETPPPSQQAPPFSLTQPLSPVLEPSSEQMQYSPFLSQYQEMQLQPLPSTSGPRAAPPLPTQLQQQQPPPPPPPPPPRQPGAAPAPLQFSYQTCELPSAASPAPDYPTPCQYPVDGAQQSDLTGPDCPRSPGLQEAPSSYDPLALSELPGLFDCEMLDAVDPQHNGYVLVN
GST-tagged SIK1, sequence (P57059 whole entry): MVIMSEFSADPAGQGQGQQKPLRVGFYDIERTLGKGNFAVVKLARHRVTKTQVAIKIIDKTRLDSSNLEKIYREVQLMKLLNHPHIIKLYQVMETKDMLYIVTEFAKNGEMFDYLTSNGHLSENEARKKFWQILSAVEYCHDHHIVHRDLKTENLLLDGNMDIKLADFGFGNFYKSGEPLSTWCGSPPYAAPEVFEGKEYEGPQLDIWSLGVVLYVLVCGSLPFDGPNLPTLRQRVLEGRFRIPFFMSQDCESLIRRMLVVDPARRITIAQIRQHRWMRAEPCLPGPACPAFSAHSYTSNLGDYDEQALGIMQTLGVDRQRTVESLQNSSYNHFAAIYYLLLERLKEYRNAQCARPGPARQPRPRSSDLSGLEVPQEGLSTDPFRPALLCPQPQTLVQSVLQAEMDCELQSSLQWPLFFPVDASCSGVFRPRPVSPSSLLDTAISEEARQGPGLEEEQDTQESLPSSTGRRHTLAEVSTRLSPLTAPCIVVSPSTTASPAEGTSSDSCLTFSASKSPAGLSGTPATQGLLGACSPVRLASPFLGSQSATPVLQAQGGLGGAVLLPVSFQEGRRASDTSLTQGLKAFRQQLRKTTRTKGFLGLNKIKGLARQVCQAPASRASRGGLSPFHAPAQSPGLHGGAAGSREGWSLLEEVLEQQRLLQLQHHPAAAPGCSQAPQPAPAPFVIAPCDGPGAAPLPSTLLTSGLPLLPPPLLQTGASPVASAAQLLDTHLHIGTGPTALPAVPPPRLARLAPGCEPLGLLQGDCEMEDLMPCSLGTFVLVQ
GST-tagged SIK3, sequence (Q9Y2K2 whole entry): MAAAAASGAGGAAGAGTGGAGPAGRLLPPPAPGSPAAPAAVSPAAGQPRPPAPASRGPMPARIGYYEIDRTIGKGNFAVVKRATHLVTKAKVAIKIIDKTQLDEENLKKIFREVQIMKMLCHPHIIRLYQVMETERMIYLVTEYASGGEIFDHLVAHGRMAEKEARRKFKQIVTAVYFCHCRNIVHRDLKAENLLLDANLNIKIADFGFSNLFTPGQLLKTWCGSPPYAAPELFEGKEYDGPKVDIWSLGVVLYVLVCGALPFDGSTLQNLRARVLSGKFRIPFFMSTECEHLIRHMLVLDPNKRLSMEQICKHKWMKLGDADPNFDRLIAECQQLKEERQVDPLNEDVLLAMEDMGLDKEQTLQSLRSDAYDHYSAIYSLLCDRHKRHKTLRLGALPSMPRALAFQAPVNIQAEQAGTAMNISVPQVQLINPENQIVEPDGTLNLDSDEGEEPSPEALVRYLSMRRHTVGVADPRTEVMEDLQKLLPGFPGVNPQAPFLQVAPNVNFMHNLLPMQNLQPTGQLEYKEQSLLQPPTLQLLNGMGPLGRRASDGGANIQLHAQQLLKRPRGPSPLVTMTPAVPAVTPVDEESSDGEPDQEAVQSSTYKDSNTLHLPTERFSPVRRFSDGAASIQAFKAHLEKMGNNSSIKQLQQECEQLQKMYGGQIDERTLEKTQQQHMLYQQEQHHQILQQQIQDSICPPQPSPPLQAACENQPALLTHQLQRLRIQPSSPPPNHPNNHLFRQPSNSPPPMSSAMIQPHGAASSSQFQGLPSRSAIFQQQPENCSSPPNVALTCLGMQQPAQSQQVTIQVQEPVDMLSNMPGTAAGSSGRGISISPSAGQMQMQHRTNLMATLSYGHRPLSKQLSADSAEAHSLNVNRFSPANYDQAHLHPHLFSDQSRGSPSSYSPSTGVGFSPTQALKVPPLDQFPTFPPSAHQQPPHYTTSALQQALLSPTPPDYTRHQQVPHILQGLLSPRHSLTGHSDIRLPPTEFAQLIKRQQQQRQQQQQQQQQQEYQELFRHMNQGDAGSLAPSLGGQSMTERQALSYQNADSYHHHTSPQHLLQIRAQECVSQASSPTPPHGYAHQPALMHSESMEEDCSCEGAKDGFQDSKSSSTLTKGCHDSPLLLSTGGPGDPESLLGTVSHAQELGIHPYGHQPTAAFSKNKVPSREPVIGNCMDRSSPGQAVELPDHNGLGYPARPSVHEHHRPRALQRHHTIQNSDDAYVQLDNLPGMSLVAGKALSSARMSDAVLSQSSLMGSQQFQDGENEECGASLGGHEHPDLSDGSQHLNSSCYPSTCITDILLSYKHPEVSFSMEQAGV

Row | Structure (SMILES) | IC50 [1] [nM] | IC50 [2] [nM] | IC50 [3] [nM]
1 | COc1cc(-c2c3c(C#N)cc(-c4cnn(C)c4)cc3nn2C)cc2c1C(=O)NCC2C (stereo not drawn) [Example 77, 3-(8-methoxy-4-methyl-1-oxo-3,4-dihydro-2H-isoquinolin-6-yl)-2-methyl-6-(1-methylpyrazol-4-yl)indazol-4-carbonitrile] | 5.2 | 11.8 | 10.1
2 | COc1cc(-c2c3c(C#N)cc(-c4cnn(CC5CCOC5)c4)cc3nn2C)cc(OC(F)F)c1C(=O)NCC1(F)CC1 (stereo not drawn) [Example 78, 4-[4-cyano-2-methyl-6-[1-(oxolan-3-ylmethyl)pyrazol-4-yl]indazol-3-yl]-2-(difluoromethoxy)-N-[(1-fluorocyclopropyl)methyl]-6-methoxybenzamide] | 5.4 | 12.6 | 6.7
3 | COc1cc(-c2c3c(C#N)cc(-c4cnn(CC5CCCO5)c4)cc3nn2C)cc(OC(F)F)c1C(=O)NCC1(F)CC1 (stereo not drawn) [Example 79, 4-[4-cyano-2-methyl-6-[1-(oxolan-2-ylmethyl)pyrazol-4-yl]indazol-3-yl]-2-(difluoromethoxy)-N-[(1-fluorocyclopropyl)methyl]-6-methoxybenzamide] | 6.8 | 12.5 | 8.1
4 | COc1cc(-c2c3c(C#N)cc(-c4cnn(CC5CCO5)c4)cc3nn2C)cc(OC(F)F)c1C(=O)NCC1(F)CC1 (stereo not drawn) [Example 80, 4-[4-cyano-2-methyl-6-[1-(oxetan-2-ylmethyl)pyrazol-4-yl]indazol-3-yl]-2-(difluoromethoxy)-N-[(1-fluorocyclopropyl)methyl]-6-methoxybenzamide] | 8.7 | 16.5 | 10.1
5 | COc1cc(-c2c3c(C#N)cc(-c4cnn(CC5CCS5(=O)=O)c4)cc3nn2C)cc(OC(F)F)c1C(=O)NCC1(F)CC1 (stereo not drawn) [Example 81, 4-[4-cyano-6-[1-[(1,1-dioxothietan-2-yl)methyl]pyrazol-4-yl]-2-methylindazol-3-yl]-2-(difluoromethoxy)-N-[(1-fluorocyclopropyl)methyl]-6-methoxybenzamide] | 7.3 | 13.3 | 10.6
6 | COc1cc(-c2c3c(C#N)cc(-c4cnn(CC5CCCS5(=O)=O)c4)cc3nn2C)cc(OC(F)F)c1C(=O)NCC1(F)CC1 (stereo not drawn) [Example 82, 4-[4-cyano-6-[1-[(1,1-dioxothiolan-2-yl)methyl]pyrazol-4-yl]-2-methylindazol-3-yl]-2-(difluoromethoxy)-N-[(1-fluorocyclopropyl)methyl]-6-methoxybenzamide] | 7.5 | 16 | 16.7
7 | COc1cc(-c2c3c(C#N)cc(-c4cnn(CC5(O)CC5)c4)cc3nn2C)cc(OC(F)F)c1C(=O)NCC1(F)CC1 [Example 83, 4-[4-cyano-6-[1-[(1-hydroxycyclopropyl)methyl]pyrazol-4-yl]-2-methylindazol-3-yl]-2-(difluoromethoxy)-N-[(1-fluorocyclopropyl)methyl]-6-methoxybenzamide] | 8.1 | 10.5 | 10.2
8 | COc1cc(-c2c3c(C#N)cc(-c4cnn(CC5(O)CCC5)c4)cc3nn2C)cc(OC(F)F)c1C(=O)NCC1(F)CC1 [Example 84, 4-[4-cyano-6-[1-[(1-hydroxycyclobutyl)methyl]pyrazol-4-yl]-2-methylindazol-3-yl]-2-(difluoromethoxy)-N-[(1-fluorocyclopropyl)methyl]-6-methoxybenzamide] | 11 | 13.6 | 12.5
9 | COc1cc(-c2c3c(C(F)F)cc(-c4cnn(C)c4)cc3nn2C)cc(OC(F)F)c1C(N)=O [Example 87, 2-(difluoromethoxy)-4-[4-(difluoromethyl)-2-methyl-6-(1-methylpyrazol-4-yl)indazol-3-yl]-6-methoxybenzamide] | 14.6 | 18.5 | 4.3
10 | COc1cc(-c2c3c(C(F)F)cc(-c4cnn(C[C@H](C)O)c4)cc3nn2C)cc(OC(F)F)c1C(=O)N[C@@H]1CC1(F)F [Example 89, N-[(1R)-2,2-difluorocyclopropyl]-2-(difluoromethoxy)-4-[4-(difluoromethyl)-6-[1-[(2S)-2-hydroxypropyl]pyrazol-4-yl]-2-methylindazol-3-yl]-6-methoxybenzamide] | 12 | 11 | 2.3
11 | COc1cc(-c2c3c(C#N)cc(-c4cnn(CCC(C)(C)O)c4)cc3nn2C)cc(OC(F)F)c1C(=O)NCC1(F)CC1 [Example 90] | 10.4 | 17.8 | 7.9
12 | COc1cc(-c2c3c(C#N)cc(-c4cnn(C[C@H]5C[C@@H](O)C5)c4)cc3nn2C)cc(OC(F)F)c1C(=O)NCC1(F)CC1 [Example 91, 4-[4-cyano-6-[1-[(cis-3-hydroxycyclobutyl)methyl]pyrazol-4-yl]-2-methylindazol-3-yl]-2-(difluoromethoxy)-N-[(1-fluorocyclopropyl)methyl]-6-methoxybenzamide] | 10.1 | 17.5 | 7.3
13 | COc1cc(-c2c3c(C#N)cc(-c4cnn(CC[C@@H](C)O)c4)cc3nn2C)cc(OC(F)F)c1C(=O)NCC1(F)CC1 [Example 92, 4-[4-cyano-6-[1-[(3R)-3-hydroxybutyl]pyrazol-4-yl]-2-methylindazol-3-yl]-2-(difluoromethoxy)-N-[(1-fluorocyclopropyl)methyl]-6-methoxybenzamide] | 10.9 | 17 | 10.2
14 | CC[C@H](O)Cn1cc(-c2cc(C#N)c3c(-c4cc(OC)c(C(=O)NCC5(F)CC5)c(OC(F)F)c4)n(C)nc3c2)cn1 [Example 93, 4-[4-cyano-6-[1-[(2S)-2-hydroxybutyl]pyrazol-4-yl]-2-methylindazol-3-yl]-2-(difluoromethoxy)-N-[(1-fluorocyclopropyl)methyl]-6-methoxybenzamide] | 13.5 | 19.8 | 5.9
15 | COc1cc(-c2c3c(C#N)cc(-c4cnn(C[C@H](C)O)c4)cc3nn2C)cc(OC(F)F)c1C(=O)N[C@@H]1CC1(F)F [Example 94, 4-[4-cyano-6-[1-[(2S)-2-hydroxypropyl]pyrazol-4-yl]-2-methylindazol-3-yl]-N-[(1R)-2,2-difluorocyclopropyl]-2-(difluoromethoxy)-6-methoxybenzamide] | 5 | 6.7 | 2.3
16 | CCCn1cc(-c2cc(C#N)c3c(-c4cc(OC)c(C(N)=O)c(OC(F)F)c4)n(C)nc3c2)cn1 [Example 96, 4-[4-cyano-2-methyl-6-(1-propylpyrazol-4-yl)indazol-3-yl]-2-(difluoromethoxy)-6-methoxybenzamide] | 3.9 | 14 | 5
17 | COc1cc(-c2c3c(C#N)cc(-c4cnn(C[C@@H](O)c5ccccc5)c4)cc3nn2C)cc(OC(F)F)c1C(=O)NCC1(F)CC1 [Example 97, 4-[4-cyano-6-[1-[(2S)-2-hydroxy-2-phenylethyl]pyrazol-4-yl]-2-methylindazol-3-yl]-2-(difluoromethoxy)-N-[(1-fluorocyclopropyl)methyl]-6-methoxybenzamide] | 7.4 | 15.3 | 6.1
18 | COc1cc(-c2c3c(C#N)cc(-c4cnn(CC(=O)N(C)C)c4)cc3nn2C)cc(OC(F)F)c1C(=O)NCC1(F)CC1 [Example 98, 4-[4-cyano-6-[1-[2-(dimethylamino)-2-oxoethyl]pyrazol-4-yl]-2-methylindazol-3-yl]-2-(difluoromethoxy)-N-[(1-fluorocyclopropyl)methyl]-6-methoxybenzamide] | 10.5 | 17.9 | 10.3
19 | COc1cc(-c2c3c(C#N)cc(-c4cnn(CC(=O)N5CC(F)(F)C5)c4)cc3nn2C)cc(OC(F)F)c1C(=O)NCC1(F)CC1 [Example 99, 4-[4-cyano-6-[1-[2-(3,3-difluoroazetidin-1-yl)-2-oxoethyl]pyrazol-4-yl]-2-methylindazol-3-yl]-2-(difluoromethoxy)-N-[(1-fluorocyclopropyl)methyl]-6-methoxybenzamide] | 5 | 19.2 | 4.9
20 | COc1cc(-c2c3c(C#N)cc(-c4cnn(CC(=O)N5CCCC5)c4)cc3nn2C)cc(OC(F)F)c1C(=O)NCC1(F)CC1 [Example 100] | 7.3 | 15.5 | 5.7
21 | COc1cc(-c2c3c(C#N)cc(-c4cnn(CC(=O)N5CCC(F)(F)C5)c4)cc3nn2C)cc(OC(F)F)c1C(=O)NCC1(F)CC1 [Example 101, 4-[4-cyano-6-[1-[2-(3,3-difluoropyrrolidin-1-yl)-2-oxoethyl]pyrazol-4-yl]-2-methylindazol-3-yl]-2-(difluoromethoxy)-N-[(1-fluorocyclopropyl)methyl]-6-methoxybenzamide] | 5.8 | 15 | 12
22 | COc1cc(-c2c3c(C#N)cc(-c4cnn(CC(F)F)c4)cc3nn2C)cc(OC(F)F)c1C(N)=O [Example 102, 4-[4-cyano-6-[1-(2,2-difluoroethyl)pyrazol-4-yl]-2-methylindazol-3-yl]-2-(difluoromethoxy)-6-methoxybenzamide] | 5.3 | 19.2 | 5.1
23 | COc1cc(-c2c3c(OCc4cncc(F)c4)cc(-c4cnn(C)c4)cc3nn2C)cc(OC(F)F)c1C(=O)N1CC(O)(C(F)(F)F)C1 [Example 103, [2-(difluoromethoxy)-4-[4-[(5-fluoropyridin-3-yl)methoxy]-2-methyl-6-(1-methylpyrazol-4-yl)indazol-3-yl]-6-methoxyphenyl]-[3-hydroxy-3-(trifluoromethyl)azetidin-1-yl]methanone] | 1.6 | 4.4 | 4.8
